Values joined by “and” are separate entries in the source; they are usually repeats but may differ in a detail not shown here. Equal values may be shown once. Toxic doses and inconclusive results are not listed.
System: B6C3F1 mice, Lewis lung carcinoma iv, survival T/C
Assay: NCI In Vivo Anticancer Drug Screen. Data for tumor model Lewis Lung Carcinoma (intravenous) in B6C3F1 mice
Conditions: endpoint: median survival time, higher = longer survival
Procedure, shortened: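 Antitumor activity is assessed in tumor-bearing mice by comparing survival after compound treatment against vehicle-treated controls, reported as a T/C ratio.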

[1] = dose: 6.25 mg/kg/injection, schedule: Q01DX009 (ip), vehicle: Klucel (hydroxypropylcellulose) (HPC)
[2] = dose: 12.5 mg/kg/injection, schedule: Q01DX009 (ip), vehicle: Klucel (hydroxypropylcellulose) (HPC)
[3] = dose: 25.0 mg/kg/injection, schedule: Q01DX009 (ip), vehicle: Klucel (hydroxypropylcellulose) (HPC)
[4] = dose: 50.0 mg/kg/injection, schedule: Q01DX009 (ip), vehicle: Klucel (hydroxypropylcellulose) (HPC)
[5] = dose: 100.0 mg/kg/injection, schedule: Q01DX009 (ip), vehicle: Klucel (hydroxypropylcellulose) (HPC)
[6] = dose: 12.5 mg/kg/injection, schedule: Q01DX009 (ip), vehicle: saline with Tween-80
[7] = dose: 25.0 mg/kg/injection, schedule: Q01DX009 (ip), vehicle: saline with Tween-80
[8] = dose: 50.0 mg/kg/injection, schedule: Q01DX009 (ip), vehicle: saline with Tween-80
[9] = dose: 3.12 mg/kg/injection, schedule: Q01DX009 (ip), vehicle: saline with Tween-80
[10] = dose: 6.25 mg/kg/injection, schedule: Q01DX009 (ip), vehicle: saline with Tween-80
[11] = dose: 25.0 mg/kg/injection, schedule: Q01DX009 (ip), vehicle: saline
[12] = dose: 50.0 mg/kg/injection, schedule: Q01DX009 (ip), vehicle: saline
[13] = dose: 100.0 mg/kg/injection, schedule: Q01DX009 (ip), vehicle: saline
[14] = dose: 200.0 mg/kg/injection, schedule: Q01DX009 (ip), vehicle: saline
[15] = dose: 100.0 mg/kg/injection, schedule: Q01DX009 (ip), vehicle: saline with Tween-80
[16] = dose: 200.0 mg/kg/injection, schedule: Q01DX009 (ip), vehicle: Klucel (hydroxypropylcellulose) (HPC)
[17] = dose: 12.5 mg/kg/injection, schedule: Q01DX009 (ip), vehicle: saline

## CCCCN(CCCC)C(Cl)=Nc1ccccc1
[1]
  T/C: 106 % of control
[2]
  T/C: 107 % of control
[3]
  T/C: 94 % of control
[4]
  T/C: 96 % of control
[5]
  T/C: 98 % of control

## CCN(CC)CCNc1ccc(C)c2sc3ccc(O)cc3c(=O)c12
[6]
  T/C: 95 % of control
[7]
  T/C: 105 % of control
[8]
  T/C: 102 % of control

## O=[n+]1c2ccccc2n([O-])c2ccccc21.[Cl][Ni][Cl]
dose: 1.56 mg/kg/injection, schedule: Q01DX009 (ip), vehicle: saline with Tween-80
  T/C: 93 % of control
[9]
  T/C: 93 % of control
[10]
  T/C: 90 % of control
[6]
  T/C: 97 % of control
[7]
  T/C: 97 % of control

## CCOC(=O)c1ccc(NN=NCCF)cc1
dose: 3.0 mg/kg/injection, schedule: Q01DX009 (ip), vehicle: distilled water + alcohol
  T/C: 98 % of control
dose: 3.12 mg/kg/injection, schedule: Q01DX009 (ip), vehicle: distilled water + Tween-80
  T/C: 104 % of control
dose: 6.0 mg/kg/injection, schedule: Q01DX009 (ip), vehicle: distilled water + alcohol
  T/C: 96 % of control
dose: 6.25 mg/kg/injection, schedule: Q01DX009 (ip), vehicle: distilled water + Tween-80
  T/C: 113 % of control
dose: 12.5 mg/kg/injection, schedule: Q01DX009 (ip), vehicle: distilled water + Tween-80
  T/C: 98 % of control
dose: 12.5 mg/kg/injection, schedule: Q01DX009 (ip), vehicle: distilled water + alcohol
  T/C: 103 % of control
dose: 25.0 mg/kg/injection, schedule: Q01DX009 (ip), vehicle: distilled water + Tween-80
  T/C: 113 % of control
dose: 25.0 mg/kg/injection, schedule: Q01DX009 (ip), vehicle: distilled water + alcohol
  T/C: 101 % of control
dose: 50.0 mg/kg/injection, schedule: Q01DX009 (ip), vehicle: distilled water + alcohol
  T/C: 98 % of control
dose: 100.0 mg/kg/injection, schedule: Q01DX009 (ip), vehicle: distilled water + alcohol
  T/C: 98 % of control

## O=C1CCC(=O)N1CO
[11]
  T/C: 94 % of control
[12]
  T/C: 98 % of control
[13]
  T/C: 94 % of control
[14]
  T/C: 103 % of control
dose: 400.0 mg/kg/injection, schedule: Q01DX009 (ip), vehicle: saline
  T/C: 106 % of control

## CCCCOCN(COCCCC)C12CC3CC(CC(C3)C1)C2
[6]
  T/C: 101 % of control
[7]
  T/C: 111 % of control
[8]
  T/C: 97 % of control
[15]
  T/C: 106 % of control
dose: 200.0 mg/kg/injection, schedule: Q01DX009 (ip), vehicle: saline with Tween-80
  T/C: 100 % of control

## CC(=O)OCC1OC([S-])C(OC(C)=O)C(OC(C)=O)C1OC(C)=O.CC[PH+](CC)CC.CC[PH+](CC)CC.[Au].[Au] (stereo unspecified)
dose: 0.62 mg/kg/injection, schedule: Q01DX009 (ip), vehicle: Klucel (hydroxypropylcellulose) (HPC)
  T/C: 91 % of control and 104 % of control
dose: 1.25 mg/kg/injection, schedule: Q01DX009 (ip), vehicle: Klucel (hydroxypropylcellulose) (HPC)
  T/C: 98 % of control and 106 % of control
dose: 2.5 mg/kg/injection, schedule: Q01DX009 (ip), vehicle: Klucel (hydroxypropylcellulose) (HPC)
  T/C: 100 % of control and 109 % of control
dose: 5.0 mg/kg/injection, schedule: Q01DX009 (ip), vehicle: Klucel (hydroxypropylcellulose) (HPC)
  T/C: 101 % of control
dose: 10.0 mg/kg/injection, schedule: Q01DX009 (ip), vehicle: Klucel (hydroxypropylcellulose) (HPC)
  T/C: 102 % of control and 104 % of control

## CC1=C[S+](c2ccccc2)c2cccc3cc4ccccc4c1c23 (stereo unspecified)
dose: 0.12 mg/kg/injection, schedule: Q01DX009 (ip), vehicle: saline with Tween-80
  T/C: 106 % of control
dose: 0.25 mg/kg/injection, schedule: Q01DX009 (ip), vehicle: saline with Tween-80
  T/C: 113 % of control
dose: 0.5 mg/kg/injection, schedule: Q01DX009 (ip), vehicle: saline with Tween-80
  T/C: 95 % of control
dose: 1.0 mg/kg/injection, schedule: Q01DX009 (ip), vehicle: saline with Tween-80
  T/C: 100 % of control
dose: 2.0 mg/kg/injection, schedule: Q01DX009 (ip), vehicle: saline with Tween-80
  T/C: 106 % of control
dose: 4.0 mg/kg/injection, schedule: Q01DX009 (ip), vehicle: saline with Tween-80
  T/C: 101 % of control

## S=C(Nc1ccc(Cl)c(Cl)c1)N1c2ccccc2-n2cccc2C1c1cccnc1 (stereo unspecified)
[2]
  T/C: 106 % of control
[3]
  T/C: 109 % of control
[4]
  T/C: 98 % of control
[5]
  T/C: 102 % of control
[16]
  T/C: 113 % of control

## O=S1(=O)C=C(c2ccccc2)C(c2ccccc2)=C1
[9]
  T/C: 101 % of control
[10]
  T/C: 89 % of control
[6]
  T/C: 101 % of control
[7]
  T/C: 110 % of control

## Cc1c(N)nc(C(CC(N)=O)NCC(N)C(N)=O)nc1C(=O)NC(C(=O)NC(C)C(O)CC(=O)NC(C(=O)NC(OC1OC(C)C(N)C(O)C1O)C(O)c1nc(-c2nc(C(=O)NCCCC(N)CC(=O)NCCCNCCCCN)cs2)cs1)C(C)O)C(OC1OC(CO)C(O)C(O)C1OC1OC(CO)C(O)C(OC(N)=O)C1O)c1cnc[nH]1 (stereo unspecified)
dose: 1.0 mg/kg/injection, schedule: Q01DX009 (ip), vehicle: saline
  T/C: 124 % of control
dose: 2.0 mg/kg/injection, schedule: Q01DX009 (ip), vehicle: saline
  T/C: 123 % of control

## C[Si](C)(CCl)N[Si](C)(C)CCl
[7]
  T/C: 104 % of control
[8]
  T/C: 99 % of control
[15]
  T/C: 107 % of control
dose: 400.0 mg/kg/injection, schedule: Q01DX009 (ip), vehicle: saline with Tween-80
  T/C: 105 % of control

## N=C(N)CCCCCCCCC(=N)N
dose: 0.79 mg/kg/injection, schedule: Q01DX009 (ip), vehicle: saline
  T/C: 112 % of control
dose: 1.56 mg/kg/injection, schedule: Q01DX009 (ip), vehicle: saline
  T/C: 119 % of control
dose: 3.12 mg/kg/injection, schedule: Q01DX009 (ip), vehicle: saline
  T/C: 112 % of control
dose: 6.25 mg/kg/injection, schedule: Q01DX009 (ip), vehicle: saline
  T/C: 124 % of control
dose: 12.5 mg/kg/injection, schedule: Q01DX001 (ip), vehicle: saline
  T/C: 97 % of control
[17]
  T/C: 115 % of control
dose: 25.0 mg/kg/injection, schedule: Q01DX001 (ip), vehicle: saline
  T/C: 103 % of control
dose: 50.0 mg/kg/injection, schedule: Q01DX001 (ip), vehicle: saline
  T/C: 107 % of control

## [Na+]
dose: 50.0 mg/kg/injection, schedule: Q01DX009 (ip), vehicle: water
  T/C: 102 % of control
dose: 100.0 mg/kg/injection, schedule: Q01DX009 (ip), vehicle: water
  T/C: 99 % of control
dose: 200.0 mg/kg/injection, schedule: Q01DX009 (ip), vehicle: water
  T/C: 95 % of control
dose: 400.0 mg/kg/injection, schedule: Q01DX009 (ip), vehicle: water
  T/C: 94 % of control
dose: 800.0 mg/kg/injection, schedule: Q01DX009 (ip), vehicle: water
  T/C: 108 % of control

## CC1=NNC(=O)C1CCO (stereo unspecified)
[1]
  T/C: 104 % of control
[2]
  T/C: 96 % of control
[3]
  T/C: 108 % of control
[4]
  T/C: 92 % of control and 99 % of control
[16]
  T/C: 98 % of control and 108 % of control
dose: 400.0 mg/kg/injection, schedule: Q01DX009 (ip), vehicle: Klucel (hydroxypropylcellulose) (HPC)
  T/C: 112 % of control

## CC(=O)OCC1OC(n2ccc(N)nc2=O)C(OC(C)=O)C1OC(C)=O (stereo unspecified)
[17]
  T/C: 92 % of control
[11]
  T/C: 100 % of control
[12]
  T/C: 101 % of control
[13]
  T/C: 115 % of control
[14]
  T/C: 115 % of control

## CC(CN1CC(=O)NC(=O)C1)N1CC(=O)NC(=O)C1 (stereo unspecified)
dose: 108.0 mg/kg/injection, schedule: Q04DX003 (ip), vehicle: Klucel (hydroxypropylcellulose) (HPC)
  T/C: 109 % of control
dose: 180.0 mg/kg/injection, schedule: Q04DX003 (ip), vehicle: Klucel (hydroxypropylcellulose) (HPC)
  T/C: 119 % of control
dose: 300.0 mg/kg/injection, schedule: Q04DX003 (ip), vehicle: Klucel (hydroxypropylcellulose) (HPC)
  T/C: 158 % of control

From PubChem BioAssay AID276 (DTP/NCI, 2004)
